Experimental data from patent publication US10131652B2, “Pyrimidinyloxy benzene derivatives as herbicides” (E. I. DU PONT DE NEMOURS AND COMPANY, priority 2014, dated 2018).

What was measured:
Experiment in all cases: Test D pre-/postemergence plant response
Assay type in all cases: in vivo
[1] = test system: barnyardgrass (Echinochloa crus-galli); settings: Postemergence; for Plant response rating, Barnyardgrass: scale 0 to 100, 0 no effect, 100 complete control
Summary of the method: (§1)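 Test chemicals were formulated in a non-phytotoxic solvent mixture containing surfactant and applied either preemergence to seeds in loam–sand soil or postemergence to plants 2 to 18 cm tall (1- to 4-leaf stage). Response was rated visually against controls after 13 to 15 days, from 0 (none) to 100 (complete control).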

[2] = test system: pigweed (Amaranthus retroflexus); settings: Postemergence
Summary of the method: as §1

[3] = test system: waterhemp (common waterhemp, Amaranthus rudis); settings: Postemergence
Summary of the method: as §1

[4] = test system: yellow nutsedge (Cyperus esculentus); settings: Postemergence
Summary of the method: as §1

[5] = test system: corn (Zea mays); settings: Postemergence; for Plant response rating, Corn: scale 0 to 100, 0 no effect, 100 complete control
Summary of the method: as §1

[6] = test system: blackgrass (Alopecurus myosuroides); settings: Postemergence; for Plant response rating, Blackgrass: scale 0 to 100, 0 no effect, 100 complete control
Summary of the method: as §1

[7] = test system: Italian ryegrass (Lolium multiflorum); settings: Postemergence
Summary of the method: as §1

[8] = test system: johnsongrass (Sorghum halepense); settings: Postemergence; for Plant response rating, Johnsongrass: scale 0 to 100, 0 no effect, 100 complete control
Summary of the method: as §1

[9] = test system: lambsquarters (Chenopodium album); settings: Postemergence
Summary of the method: as §1

[10] = test system: winter wheat (Triticum aestivum); settings: Postemergence
Summary of the method: as §1

[11] = test system: ragweed (common ragweed, Ambrosia elatior); settings: Postemergence
Summary of the method: as §1

[12] = test system: oilseed rape (Brassica napus); settings: Postemergence
Summary of the method: as §1

[13] = test system: velvetleaf (Abutilon theophrasti); settings: Postemergence
Summary of the method: as §1

[14] = test system: large (Lg) crabgrass (Digitaria sanguinalis); settings: Postemergence; for Plant response rating, Crabgrass, Large: scale 0 to 100, 0 no effect, 100 complete control
Summary of the method: as §1

[15] = test system: galium (catchweed bedstraw, Galium aparine); settings: Postemergence; for Plant response rating, Galium: scale 0 to 100, 0 no effect, 100 complete control
Summary of the method: as §1

[16] = test system: morningglory (Ipomoea coccinea); settings: Postemergence
Summary of the method: as §1

[17] = test system: soybean (Glycine max); settings: Postemergence
Summary of the method: as §1

[18] = test system: giant foxtail (Setaria faberii); settings: Postemergence; for Plant response rating, Foxtail, Giant: scale 0 to 100, 0 no effect, 100 complete control
Summary of the method: as §1

[19] = 31 g ai/ha, scale 0 to 100 (0 no effect, 100 complete control)
[20] = 62 g ai/ha, scale 0 to 100, 0 no effect, 100 complete control
[21] = 125 g ai/ha, scale 0 to 100, 0 no effect, 100 complete control

Which “Plant response rating (scale 0 to 100), Barnyardgrass” value ([1]; 16 g ai/ha) does the source give for FC(F)c1cc(-c2ccccc2Oc2ncc(Br)cn2)on1 [Compound 212] here?
The value was 5.

What about the “Barnyardgrass plant response rating” value [1, 19] of the same compound?
Its value is 5.

What about the “Plant response rating, Barnyardgrass” value ([1]; 62 g ai/ha) of the same compound?
Its value is 15.

And the “Plant response rating, Barnyardgrass” value ([1]; 125 g ai/ha)?
The value was 25.

And the “Plant response rating (scale 0 to 100), Pigweed” value ([2]; 16 g ai/ha)?
The value was 100.

And the “Pigweed plant response rating” value [2, 19]?
Its value is 100.

What about the “Pigweed plant response rating” value [2, 20] of the same compound?
Its value is 100.

What about the “Plant response rating, Pigweed” value [2, 21] of the same compound?
The value was 100.

What about the “Plant response rating (scale 0 to 100), Waterhemp” value ([3]; 16 g ai/ha) of the same compound?
The value was 80.

What about the “Waterhemp plant response rating” value [3, 19] of the same compound?
Its value is 98.

And the “Waterhemp plant response rating” value [3, 20]?
Its value is 100.

And the “Plant response rating, Waterhemp” value [3, 21]?
The value was 100.

And the “Plant response rating (scale 0 to 100), Nutsedge, Yellow” value ([4]; 16 g ai/ha)?
The value was 10.

And the “Nutsedge, Yellow plant response rating” value [4, 19]?
The value was 5.

What about the “Nutsedge, Yellow plant response rating” value [4, 20] of the same compound?
The value was 10.

And the “Plant response rating, Nutsedge, Yellow” value [4, 21]?
Its value is 5.

And the “Plant response rating (scale 0 to 100), Corn” value ([5]; 16 g ai/ha)?
Its value is 5.

And the “Corn plant response rating” value [5, 19]?
Its value is 5.

What about the “Plant response rating, Corn” value ([5]; 62 g ai/ha) of the same compound?
The value was 10.

And the “Plant response rating, Corn” value ([5]; 125 g ai/ha)?
Its value is 15.

And the “Plant response rating (scale 0 to 100), Blackgrass” value ([6]; 16 g ai/ha)?
The value was 0.

And the “Blackgrass plant response rating” value [6, 19]?
The value was 0.

And the “Plant response rating, Blackgrass” value ([6]; 62 g ai/ha)?
The value was 0.

What about the “Plant response rating, Blackgrass” value ([6]; 125 g ai/ha) of the same compound?
The value was 10.

And the “Plant response rating (scale 0 to 100), Ryegrass, Italian” value ([7]; 16 g ai/ha)?
Its value is 0.

And the “Ryegrass, Italian plant response rating” value [7, 19]?
Its value is 0.

What about the “Ryegrass, Italian plant response rating” value [7, 20] of the same compound?
The value was 0.

What about the “Plant response rating, Ryegrass, Italian” value [7, 21] of the same compound?
The value was 5.

What about the “Plant response rating (scale 0 to 100), Johnsongrass” value ([8]; 16 g ai/ha) of the same compound?
Its value is 5.

And the “Johnsongrass plant response rating” value [8, 19]?
Its value is 5.

And the “Plant response rating, Johnsongrass” value ([8]; 62 g ai/ha)?
The value was 20.

What about the “Plant response rating, Johnsongrass” value ([8]; 125 g ai/ha) of the same compound?
The value was 20.

What about the “Plant response rating (scale 0 to 100), Lambsquarters” value ([9]; 16 g ai/ha) of the same compound?
The value was 40.

What about the “Lambsquarters plant response rating” value [9, 19] of the same compound?
Its value is 80.

What about the “Lambsquarters plant response rating” value [9, 20] of the same compound?
Its value is 98.

What about the “Plant response rating, Lambsquarters” value [9, 21] of the same compound?
The value was 98.

What about the “Plant response rating (scale 0 to 100), Wheat” value ([10]; 16 g ai/ha) of the same compound?
The value was 0.

What about the “Wheat plant response rating” value [10, 19] of the same compound?
Its value is 5.

And the “Wheat plant response rating” value [10, 20]?
Its value is 5.

And the “Plant response rating, Wheat” value [10, 21]?
The value was 15.

What about the “Plant response rating (scale 0 to 100), Ragweed” value ([11]; 16 g ai/ha) of the same compound?
Its value is 35.

What about the “Ragweed plant response rating” value [11, 19] of the same compound?
The value was 40.

What about the “Ragweed plant response rating” value [11, 20] of the same compound?
Its value is 55.

And the “Plant response rating, Ragweed” value [11, 21]?
Its value is 60.

What about the “Plant response rating (scale 0 to 100), Oilseed Rape” value ([12]; 16 g ai/ha) of the same compound?
Its value is 10.

And the “Oilseed Rape plant response rating” value [12, 20]?
The value was 20.

And the “Plant response rating, Oilseed Rape” value [12, 21]?
Its value is 35.

What about the “Plant response rating (scale 0 to 100), Velvetleaf” value ([13]; 16 g ai/ha) of the same compound?
The value was 20.

And the “Velvetleaf plant response rating” value [13, 19]?
The value was 50.

What about the “Velvetleaf plant response rating” value [13, 20] of the same compound?
Its value is 60.

And the “Plant response rating, Velvetleaf” value [13, 21]?
The value was 90.

What about the “Plant response rating (scale 0 to 100), Crabgrass, Large” value ([14]; 16 g ai/ha) of the same compound?
The value was 5.

What about the “Crabgrass, Large plant response rating” value [14, 19] of the same compound?
The value was 10.

And the “Plant response rating, Crabgrass, Large” value ([14]; 62 g ai/ha)?
The value was 10.

What about the “Plant response rating, Crabgrass, Large” value ([14]; 125 g ai/ha) of the same compound?
Its value is 15.

And the “Plant response rating (scale 0 to 100), Galium” value ([15]; 16 g ai/ha)?
Its value is 60.

What about the “Galium plant response rating” value [15, 19] of the same compound?
The value was 60.

What about the “Plant response rating, Galium” value ([15]; 62 g ai/ha) of the same compound?
The value was 65.

And the “Plant response rating, Galium” value ([15]; 125 g ai/ha)?
Its value is 80.

What about the “Plant response rating (scale 0 to 100), Morningglory” value ([16]; 16 g ai/ha) of the same compound?
The value was 75.

And the “Morningglory plant response rating” value [16, 19]?
Its value is 98.

And the “Morningglory plant response rating” value [16, 20]?
Its value is 75.

And the “Plant response rating, Morningglory” value [16, 21]?
The value was 98.

And the “Plant response rating (scale 0 to 100), Soybean” value ([17]; 16 g ai/ha)?
Its value is 60.

And the “Soybean plant response rating” value [17, 19]?
Its value is 70.

What about the “Soybean plant response rating” value [17, 20] of the same compound?
The value was 85.

And the “Plant response rating, Soybean” value [17, 21]?
Its value is 90.

And the “Plant response rating (scale 0 to 100), Foxtail, Giant” value ([18]; 16 g ai/ha)?
The value was 10.

And the “Foxtail, Giant plant response rating” value [18, 19]?
Its value is 10.

What about the “Plant response rating, Foxtail, Giant” value ([18]; 62 g ai/ha) of the same compound?
Its value is 15.

And the “Plant response rating, Foxtail, Giant” value ([18]; 125 g ai/ha)?
Its value is 10.
